Results on 2 compounds are retold here after patent US5932548A, “Lysine containing peptides for treatment of heart disease” (priority 1998, dated 1999).

Non-standard residues stand in square brackets, D forms with d. Residues, ends and D or L forms follow the SMILES beside them. dTrp(2-Me) = Cc1[nH]c2ccccc2c1C[C@@H](N)C(=O)O

For experiment [1], the system named is isolated rat hearts. The experiment in a line: coronary perfusion pressure (CPP) in isolated rat hearts. The settings on record: versus saline treatment (no peptide). The method, then: (§1) In the examples that follow, data is presented for the most preferred lysine containing peptides of the invention. The GH releasing effect was measured in rats according to the method described by R. Deghenghi et al., Life Sci. 54: 1321-1328 (1994). The cardiac protection of the instant peptides has been measured essentially as described in the above cited publication by V. De Gennaro Colonna et al., Europ. J. Pharmacol. 334:201-207 (1997).
The effects on coronary perfusion pressure ("CPP") in isolated rat hearts have been measured using Hexarelin (His-D-Mrp-Ala-Trp-D-Phe-Lys-NH2) as reference compound and compared to that for the GH antagonist His-D-Mrp-D-Lys-Trp-D-Phe-Lys-NH2. An increase of CPP over a saline treatment (i.e., no peptide) of 110±10% was found for Hexarelin, but an increase of 160±25% was found for the antagonist.

Experiment [2] has as its system growth hormone deficient rats. The settings on record: De Gennaro Colonna et al. 1997; cited from earlier work.
In experiment [3] the test system is rats. The experiment in a line: GH releasing effect in rats. Format: in vivo, rat. The method, then:
as §1

Turning to `Cc1[nH]c2ccccc2c1C[C@@H](NC(=O)[C@@H](N)Cc1cnc[nH]1)C(=O)N[C@@H](C)C(=O)N[C@@H](Cc1c[nH]c2ccccc12)C(=O)N[C@H](Cc1ccccc1)C(=O)N[C@@H](CCCCN)C(N)=O` [Hexarelin, His-D-Mrp-Ala-Trp-D-Phe-Lys-NH2] (H-H[dTrp(2-Me)]AW[dF]K-NH2), the “increase of CPP over a saline treatment” value in experiment [1] came to 110±10%. In experiment [2], the “effect on cardiac dysfunction” value is recorded as “reverse the worsening of cardiac dysfunction”.

Take His-D-Mrp-D-Lys-Trp-D-Phe-Lys-NH2: the “increase of CPP over a saline treatment” value in experiment [1] was 160±25%. The GH liberation entry in experiment [3] was “does not liberate GH”.
